According to patent US9040527B2, “Pyrimidinediamine kinase inhibitors” (Rigel Pharmaceuticals, Inc., priority 2008, dated 2015):

Tests used:
PLK1 [1] = target: T1, PLK1 (Homo sapiens, UniProt P53350); experiment: In vitro PLK1 ELISA assay (biochemical); set-up: purchased Cell Signalling 7728
Summary of the method: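 Commercial PLK1 phosphorylates neutravidin-captured biotinylated CHK2 peptide for 45 min at room temperature in HEPES pH 7.2 with Mg2+/Mn2+/DTT, compounds at 10 μM to 0.005 μM. Phospho-CHK2(T68) antibody plus HRP secondary gives chemiluminescent read-out used for IC50.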

PLK1 [2] = target: T1, PLK1; experiment: Cellular PLK1 assay in K562 cells overexpressing CDC25C; format: cell-based; set-up: endogenous in cells; host or cells: K562 (human chronic myelogenous leukemia) overexpressing CDC25C, nocodazole-arrested; conditions: nocodazole arrested, cdc25c p-Ser198 readout
Protocol: Inhibition of PLK1 was measured by quantifying phosphorylation of PLK1 substrates using chemiluminescent and fluorogenic probes. The protocols for these assays are provided below.
1. Culturing of K562 Cells
Human chronic myelogenous leukemia K562 cells (American Tissue Culture Collection) overexpressing CDC25C, were grown in Growth Medium having the following composition: Iscove Dulbecco's Modified Eagle's Medium (“Iscove DMEM”, Mediatech/Cellgro, Cat. #10-013-CV), 10% Fetal Bovine Serum (“FBS”, SAFC Biosciences, Cat. #12106-500M), and 1% penicillin/streptomycin (“pen-strep”, Mediatech/Cellgro, Cat. #30-002-CI). The cells were plated in 96 well round bottom tissue culture plates (Fisher, Costar* Cell Culture plates, Cat. #07-200-95) at 100,000 cells per 50 μL of Growth Medium per well. Nocodazole (Sigma, Cat. # M1404) was added to the growth media to arrest the cells in the G2 or M phase, at 333 nM concentration. The cells were incubated with nocodazole for 18 hours at 37° C. prior to addition of tested compounds.
2. Treatment of Cells with the Tested Compounds
Solutions of tested compounds in DMSO at different concentrations were prepared using serial dilutions. Each compound was tested at 8 concentration points, 10 μM, 3.3 μM, 1.11 μM, 0.37 μM, 0.12 μM, 0.04 μM, 0.014 μM, 0.005 μM, duplicate replicates.
Two controls were performed: “DMSO alone” control in which nocodazole and DMSO were present but no compounds were added, and “nocodazole alone” control, in which only nocodazole was present, but neither DMSO nor compounds were added.
The solutions of compounds were prepared by diluting 10 mM compound 1:1 in DMSO (5 μL 10 mM compound and 5 μL DMSO), followed by 1:3 serial dilutions of compound in DMSO performed by diluting 3 μL of higher concentration compound solution serially into 6 μL DMSO to give 3-fold dilutions. Next, 3 μL of each compound solution at each concentration was transferred to 750 μL of Growth Medium. In “DMSO alone” control 3 μL of DMSO alone was added to 750 μL of Growth Medium.
After the diluted compounds were mixed well in the Growth Medium, 50 μL of each compound solution in DMSO/Growth Medium was transferred to each well of the 96-plate containing cells in 50 μL of Growth Medium/Nocodazole.
The cells and compounds were incubated for 120 minutes at 37° C., in an atmosphere containing 5% CO2.
3. Fixation and Permeabilization of the Cells
After the cells were incubated with compounds, the cells were spun down at 1,000 rpm for 5 minutes at 4° C. and supernatants were removed by flicking the plates. Cells were then washed with 200 μl of ice cold PBS, spun down again and supernatants removed. Cells were then fixed and permeabilized by addition of 100 μL/well of Fixation and Permeabilization Solution (1× buffer provided in BD Biosciences Cytofix/Cytoperm™ Fixation/Permeabilization kit, Cat. #554714) and incubation for 20 minutes at room temperature. The fixative was then removed by centrifugation (5 minutes at 2,000 rpm), and plates were flicked to remove the fixative and washed twice, each time with 200 μL/well BD Perm/Wash buffer (10× concentrate provided in BD Biosciences Cytofix/Cytoperm™ Fixation/Permeabilization kit, Cat. #554714, 1× buffer prepared by dilution in distilled H2O).
Cells were spun down at 1,000 rpm for 5 minutes at 4° C. Supernatants were removed by flicking the plates. A solution of a primary antibody specific for cdc25cp-Ser198 was prepared by diluting Rabbit cdc25c (Ser198) antibody (Cell Signaling, #9529L) 1:50 in a Fluorescence Activated Cell Sorting (“FACS”) Buffer (2% FBS in PBS). The cell pellets were resuspended in 50 μL of the primary antibody solution. 50 μL of FACS buffer was added to unstained controls. Staining was allowed to proceed overnight at room temperature.
The plates were then washed by addition of 200 μL of FACS Buffer to each well, were centrifuged and the supernatant was removed. […]

[3] = ELISA, CHK2-derived peptide substrate, read-out: PLK1 IC50 (μM) biochemical assay
[4] = read-out: IC50 in biochemical in vitro PLK1 ELISA assay (less than 10 μM)

T1 sequence (P53350 whole entry): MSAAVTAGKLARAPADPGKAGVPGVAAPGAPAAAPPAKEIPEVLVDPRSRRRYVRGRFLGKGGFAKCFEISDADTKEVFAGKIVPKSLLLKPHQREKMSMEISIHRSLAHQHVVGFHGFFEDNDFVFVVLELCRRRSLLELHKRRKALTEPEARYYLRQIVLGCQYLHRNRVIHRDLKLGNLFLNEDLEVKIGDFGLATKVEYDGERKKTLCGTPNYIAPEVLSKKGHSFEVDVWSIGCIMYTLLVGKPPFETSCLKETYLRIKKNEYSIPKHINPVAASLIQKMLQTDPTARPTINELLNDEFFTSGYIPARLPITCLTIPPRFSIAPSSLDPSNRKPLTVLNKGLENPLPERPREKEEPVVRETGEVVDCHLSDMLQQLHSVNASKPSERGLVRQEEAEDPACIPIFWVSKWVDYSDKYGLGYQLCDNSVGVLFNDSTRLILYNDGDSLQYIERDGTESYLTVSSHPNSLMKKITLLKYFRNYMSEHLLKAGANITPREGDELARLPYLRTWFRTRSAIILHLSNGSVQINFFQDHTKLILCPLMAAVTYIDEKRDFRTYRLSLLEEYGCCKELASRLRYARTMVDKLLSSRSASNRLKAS

| SMILES | IC50 (PLK1 [1]; [3]) [µM] | IC50 (PLK1 [1]; read-out: IC50 in biochemical ELISA assay (less than 0.01 μM)) [µM] | IC50 (PLK1 [1]; [4]) [µM] | IC50 (PLK1 [2]) [µM] |
| --- | --- | --- | --- | --- |
| Cc1cnc(Nc2cccc(N3CCN(C)CC3)c2)nc1Nc1ccc2c(n1)N(Cc1ccccc1)C(=O)CO2 [compound 122, 4-benzyl-6-(5-methyl-2-(3-(4-methylpiperazin-1-yl)phenylamino)pyrimidin-4-ylamino)-2H-pyrido[3,2-b][1,4]oxazin-3(4H)-one] | < 0.5 | < 0.01 | < 10 | 0.5 to 5 |
| CN1CCN(c2cccc(Nc3ncc(F)c(Nc4ccc5c(n4)N(Cc4ccc(F)cc4)C(=O)CO5)n3)c2)CC1 [compound 132, 6-(5-fluoro-2-(3-(4-methylpiperazin-1-yl)phenylamino)pyrimidin-4-ylamino)-4-(4-fluorobenzyl)-2H-pyrido[3,2-b][1,4]oxazin-3(4H)-one] | 5 to 10 |  | < 10 | 0.5 to 5 |
| CCCN1CCOc2ccc(Nc3nc(Nc4ccc(N5CC6CC5CN6S(C)(=O)=O)c(C)c4)ncc3F)nc21 (stereo not shown) [compound 28, 5-fluoro-N2-(3-methyl-4-(5-(methylsulfonyl)-2,5-diaza-bicyclo[2.2.1]heptan-2-yl)phenyl)-N4-(4-propyl-3,4-dihydro-2H-pyrido[3,2-b][1,4]oxazin-6-yl)pyrimidine-2,4-diamine] | 0.5 to 5 |  | < 10 | 0.5 to 5 |
| CCCN1CCOc2ccc(Nc3nc(Nc4ccc(N5CC6CC5CN6S(C)(=O)=O)c(C)c4)ncc3C)nc21 (stereo not shown) [compound 33, 5-methyl-N2-(3-methyl-4-(5-(methylsulfonyl)-2,5-diazabicyclo[2.2.1]heptan-2-yl)phenyl)-N4-(4-propyl-3,4-dihydro-2H-pyrido[3,2-b][1,4]oxazin-6-yl)pyrimidine-2,4-diamine] | < 0.5 |  | < 10 | 0.5 to 5 |
| CC(C)c1cc(Nc2ncc(F)c(Nc3ccc4c(n3)NC(=O)CO4)n2)cc(N2CCN(C)CC2)c1 [compound 44, 6-(5-fluoro-2-(3-isopropyl-5-(4-methylpiperazin-1-yl)phenylamino)pyrimidin-4-ylamino)-2H-pyrido[3,2-b][1,4]oxazin-3(4H)-one] | < 0.5 |  | < 10 | ≥ 10 |
| Cc1cc(Nc2ncc(C)c(Nc3ccc4c(n3)N(CC3CC3)C(=O)CO4)n2)ccc1N1CCN(C)CC1 [compound 114, 4-(cyclopropylmethyl)-6-(5-methyl-2-(3-methyl-4-(4-methyl-piperazin-1-yl)phenylamino)pyrimidin-4-ylamino)-2H-pyrido[3,2-b][1,4]oxazin-3(4H)-one] | 0.5 to 5 |  | < 10 | ≥ 10 |
| Cc1cnc(Nc2cccc(N3CCN(C)CC3)c2)nc1Nc1ccc2c(n1)N(Cc1ccc(F)cc1)C(=O)CO2 [compound 133, 4-(4-fluorobenzyl)-6-(5-methyl-2-(3-(4-methylpiperazin-1-yl)phenylamino)pyrimidin-4-ylamino)-2H-pyrido[3,2-b][1,4]oxazin-3(4H)-one] | < 0.5 |  | < 10 | 0.5 to 5 |
| CCCN1C(=O)COc2ccc(Nc3nc(Nc4ccc(N5CC6CC5CN6C(C)=O)c(C)c4)ncc3C)nc21 (stereo not shown) [compound 38, 6-(2-(4-(5-acetyl-2,5-diazabicyclo[2.2.1]heptan-2-yl)-3-methylphenyl-amino)-5-methyl-pyrimidin-4-ylamino)-4-propyl-2H-pyrido[3,2-b][1,4]oxazin-3(4H)-one] | < 0.5 |  | < 10 | 0.5 to 5 |
| CN1CCN(c2cccc(Nc3ncc(F)c(Nc4ccc5c(n4)N(Cc4ccccc4)C(=O)CO5)n3)c2)CC1 [compound 120, 4-benzyl-6-(5-fluoro-2-(3-(4-methylpiperazin-1-yl)phenylamino)pyrimidin-4-ylamino)-2H-pyrido[3,2-b][1,4]oxazin-3(4H)-one] | 0.5 to 5 |  | < 10 | 0.5 to 5 |
| CN1CCN(c2cc(Nc3ncc(F)c(Nc4ccc5c(n4)NCCO5)n3)cc(C(F)(F)F)c2)CC1 [compound 24, N4-(3,4-dihydro-2H-pyrido[3,2-b][1,4]oxazin-6-yl)-5-fluoro-N2-(3-(4-methylpiperazin-1-yl)-5-(trifluoro-methyl)phenyl)pyrimidine-2,4-diamine] | < 0.5 |  | < 10 | ≥ 10 |
